We go through one compound from patent publication US11214556B1, “Method of treating colorectal cancer” (King Abdulaziz University, priority 2019, dated 2022).

Molecules are shown by their SMILES.

Format in all cases: cell-based, human
Experiment [1] concerns HCT-116 cells. The experiment is described as follows: SRB cytotoxicity assay, HCT-116. The settings on record: SRB assay, 72 h exposure; ± SEM. In short, it runs like this:
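Cells in RPMI1640/10% FBS were seeded at 5000 per well and grown 24 h. They were then exposed to 0.01–100 μM compound, or 1% DMSO, for 72 h at 37 °C. After TCA fixation and SRB staining, OD was read at 510 nm and viability expressed relative to untreated controls.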
For orientation: The SRB assay estimates cell density from bound dye.

The test system of a further experiment is CACO-2 cells. Briefly: SRB cytotoxicity assay, CACO-2. The settings on record: 72 h exposure, ± SEM. The essentials: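 Cells seeded at 5000/well, grown 24 h, then exposed 72 h at 37 °C to 0.01–100 μM compound or 1% DMSO in RPMI1640 with 10% FBS. TCA-fixed, SRB-stained, OD read at 510 nm; viability expressed relative to untreated control cells.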
Experiment [2] deals with HCT-116 cells. The experiment is described as follows: Nuclear fragmentation by DAPI staining. The settings on record: 2.85 μM (IC50), 48 h compared to 24 h. The protocol:
Several assays were performed to determine the apoptotic effect of the early lead MOS-1512 as well as the potent derivative MOS-4112 on HCT-116 cells. […] See Drutovic, D.; Chripkova, M.; Pilatova, M.; Kruzliak, P.; Perjesi, P.; Sarissky, M.; Lupi, M.; Damia, G.; Broggini, M.; Mojzis, J., Benzylidenetetralones, cyclic chalcone analogues, induce cell cycle arrest and apoptosis in HCT116 colorectal cancer cells. Tumour Biol 2014, 35 (10), 9967-75, incorporated herein by reference in its entirety.
Cells were cultured on sterile 22 mm^2 cover slips (Harvard Apparatus, MA, USA) in sterile six well plates at a density of 2×10^5 cells/well. […] The fixed and permeabilized cells nuclei were denatured with 2 N HCl (300 μl) for 10 min, washed three times more, and treated with 0.1 μg/ml 4′,6′-diamidino-2-phenylindole, dihydrochloride (DAPI) (Sigma-Aldrich, St. Louis, Mo., USA) (1:1000) in (phosphate-buffered saline-Tween 20 (PBST) for 1 hr. After staining, the cells were washed twice with PBS. The cover slips were then mounted on a glass slide with anti-fade mounting medium and viewed with an epifluorescence microscope, Leica, DM 5500 B (Leica, Buffalo Grove, Ill., USA) at a magnification of 60×, and data were captured digitally and quantified using the microscope provided software.

Take `CCCNC(=O)/C(=C/c1c[nH]c2ccccc12)NC(=O)/C=C/c1cccs1` [Compound 4112, (Z)-3-(1H-indol-3-yl)-N-propyl-2-[(E)-3-(thien-2-yl)acrylamidolacry]amide]: the IC50 (as a rule, the midpoint of a concentration-inhibition curve) with HCT-116 cells [1] stood at 2.85 ± 1.5 µM; in the experiment on CACO-2 cells, 0.89 ± 0.04 µM. Moreover, the “percentage of cells with fragmented DNA and condensed nuclei” value with HCT-116 cells [2] was “greatly increased”.
